The record followed here is patent US20230168243A1, “METHODS FOR DIAGNOSING IMMEDIATE HYPERSENSITIVY REACTION” (Universiteit Antwerpen, priority 2020, published 2023).

The subject of assay [1] is cultured human donor mast cells (dMCs). Briefly: Mast cell activation test (MAT): CD63 upregulation on donor mast cells passively sensitized with patients' sera (dMCIgE+), flow cytometry. It counts as cell-based. The note with it: for CD63 upregulated after activation / CD63 upregulation: dMCIgE+ sensitized with patients' sera, mean; for CD63 upregulated after activation: first donor, 20 min; for CD63 upregulation: second donor; for up-regulation of CD63 (% of the cells): donor MCs passively sensitized with serum containing chlorhexidine-reactive IgE antibodies, FIG. 7. Here is the method: Human MCs were cultured as described in Cop N, et al. Influence of IL-6, IL-33, and TNF-alpha on human mast cell activation: Lessons from single cell analysis by flow cytometry. Cytometry B Clin Cytom 2018; 94:405-11. Briefly, peripheral blood mononuclear cells were isolated from 50 mL peripheral blood from healthy volunteers. CD34^+ progenitor cells were enriched using the EasySep Human CD34 Selection Kit (Stemcell Technologies, Vancouver, Canada) according to the manufacturer's instructions. Isolated CD34^+ progenitor cells were cultured in a serum-free methylcellulose-based medium (MethoCult SF H4236, Stemcell Technologies) supplemented with penicillin (100 units/mL, Life Technologies, Waltham, USA), streptomycin (100 μg/mL, Life Technologies), low-density lipoprotein (LDL, 10 μg/mL, Stemcell Technologies), 2-mercaptoethanol (55 μmol/L, Life Technologies), stem cell factor (SCF, 100 ng/mL, Miltenyi Biotec, Bergisch Gladbach, Germany), interleukin-3 (IL-3, 100 ng/mL, PeproTech, Rocky Hill, USA) and interleukin-6 (IL-6, 50 ng/mL, Miltenyi Biotec) during 4-5 weeks. Participants gave a written informed consent as approved by the Ethical Committee of the University Hospital of Antwerp (Belgium B300201316408).
Degranulation of dMC was measured by overnight passively sensitizing the cells with serum at 37° C. in a humidified CO2-incubator. Next, dMC^IgE+ were centrifuged (500 g, 5 minutes, 20° C.) and the cell pellet was resolved in pre-warmed Tyrode's buffer (Sigma-Aldrich, St. Louis, USA) at a concentration of 0.5×10^6 cells/mL. Thereafter, 100 μL of the cells were pre-incubated with IL-33 (100 ng/mL) (Peprotech) for 20 minutes on 37° C. Subsequently, these pre-incubated dMC^IgE+ were stimulated with 100 μL Tyrode's buffer as a negative control or 100 μL of CHX (Sigma-Aldrich) during 20 minutes at 37° C. The final concentrations of CHX were: 0.05, 5, 500, 50 000 ng/mL, i.e. 0.0028, 0.28, 28; 2800 nM). Reactions were stopped by placing the cells on ice and removing the supernatants (500 g, 5 minutes, 4° C.). Cells were stained with monoclonal anti-human CD117-APC (clone 104D2, BD Biosciences, Erembodegem, Belgium), CD203c-PeCy7 (clone NP4D6, eBioscience) and CD63-FITC (clone H5C6, BD Bioscience) for 20 minutes at 4° C. Finally, cells were washed and resolved in PBS with 0.1% sodium azide and measured. Degranulation of dMCs was measured as surface upregulation of the lysosomal degranulation marker CD63. The mast cell activation test is repeated on dMCs of two different volunteers.
Flow cytometric analysis was performed on a FACSCanto II flow cytometer (BD Immunocytometry Systems, San Jose, Calif.) equipped with three lasers (405 nm, 488 nm and 633 nm). Correct compensation settings for antibodies conjugated with fluorochromes were performed using BD CompBeads (BD Biosciences). Flow cytometric data were analyzed using Kaluza Analysis 1.5 software (Beckman Coulter, USA). Unstained samples were used to set a marker between positive and negative cells according to the 99th percentile. A fluorescence minus one (FMO) was used to set a marker between positive and negative cells. Mast cells were gated out as CD117 and CD203c positive cells. Results are expressed as mean and range.
Human MCs were obtained as described in Example 1. Sera from patients with perioperative anaphylaxis were selected based on the presence of sIgE against rocuronium >0.13 kUa/L and a positive skin test rocuronium. MC activation was determined as described in Example 1 and cells were stimulated during 3 and 20 minutes, preferably 20 minutes, with final concentrations of rocuronium of 1.64, 16.4, 164 and 1640 μM.
Human MCs were obtained as described in Example 1.
In general terms: A flow cytometer gives signals particle by particle.

Assay [2] shares this test system. In words: Direct mast cell activation: CD63 upregulation on donor mast cells not passively sensitized with serum (dMCIgE-). It counts as cell-based. The note with it: for CD63 upregulation / activation of unsensitized (unloaded) mast cells: MCs not passively sensitized with patients' serum.

Take `[H]/N=C(\N/C(=N/[H])NCCCCCCNC(=N)NC(=N)Nc1ccc(Cl)cc1)Nc1ccc(Cl)cc1` [chlorhexidine, 1:6-di(4-chlorophenyldiguanido)-hexane]: the “CD63 upregulation (degranulation)” value in assay [1] (dMC sensitized with sera of patients with isolated sIgE CHX (negative skin test and BAT)) is given as “no upregulation of CD63”. Besides, the “CD63 upregulated after activation” value in assay [1] (CHX 0.05 ng/mL (0.0028 nM), printed range 1-22) is listed as 1%; in assay [1] (CHX 5 ng/mL (0.28 nM), printed range 1-76), 10%; in assay [1] (CHX 500 ng/mL (28 nM), printed range 6-86) it was 57%; in assay [1] (CHX 50000 ng/mL (2800 nM), printed range 0-88), 31%. Also, the CD63 upregulation in assay [1] (CHX 0.05 ng/mL (0.0028 nM), printed range 0-21) is reported as 2%; in assay [1] (CHX 5 ng/mL (0.28 nM), printed range 2-44), 7%; in assay [1] (CHX 500 ng/mL (28 nM), printed range 3-64) it was 30%; in assay [1] (CHX 50000 ng/mL (2800 nM), printed range 0-73), 45%. In addition, the “up-regulation of CD63 (% of the cells)” value in assay [1] is on record as 18%. Further, the “CD63 upregulation / activation of unsensitized (unloaded) mast cells” value is “did not upregulate CD63” in assay [2] and “could not elicit activation/degranulation” in assay [2] (listed as CHX).
With `CCCCCCCCN=c1ccn(CCCCCCCCCCn2ccc(=NCCCCCCCC)cc2)cc1` [octenidine], the “up-regulation of CD63 (% of the cells)” value in assay [1] worked out at 18%. In assay [2], the “CD63 upregulation / activation of unsensitized (unloaded) mast cells” value was “did not upregulate CD63”.
As to `C=CC[N+]1([C@H]2C[C@H]3[C@@H]4CC[C@H]5C[C@H](O)[C@@H](N6CCOCC6)C[C@]5(C)[C@H]4CC[C@]3(C)[C@H]2OC(C)=O)CCCC1` [rocuronium], the “CD63 upregulation after stimulation” value came out at 24% in assay [1] (dMCIgE+ sensitized with serum of a rocuronium-allergic patient, rocuronium end concentration 164 μM, representative plot FIG. 6) and 0% in assay [2] (dMCIgE- not passively sensitized, rocuronium end concentration 164 μM, representative plot FIG. 6).
